According to patent US10179816B2, “Pharmaceutical compositions comprising an antibody which binds the human anti-Müllerian hormone receptor type II” (LABORATOIRE FRANCAIS DU FRACTIONNEMENT DES BIOTECHNOLOGIES, priority 2011, dated 2019):
Several values for one entry are separate records, joined by “and”; a condition that tells them apart may be missing. Identical values can stand only once. Entries after “also recorded” stand apart in the source; their conditions may differ.

Key:
[1] = test system: Cov434-AMHRII Asc1a5 (cell line of human ovarian cancer transfected with cDNA AMHRII); assay: Anti-tumour activity of 3C23K alone or with carboplatin in Cov434-AMHRII Asc1a5 xenograft (tumour volume, T/C ratio, statistical analysis); format: in vivo, female Swiss nude mouse; conditions: for Anti-tumour activity (in words): carboplatin study, comparator as stated in the sentence
Protocol: The 3C23K antibody was evaluated according to the following scheme: 2 times per week for 6 weeks, for a total of 12 injections at about 10 mg/kg/injection, said administration regimen being designated below as “Q3-4D12”. Another group of mice was treated with an irrelevant antibody LFB-R565, administered at about 10 mg/kg/injection, according to the regimen Q3-4D12.
Carboplatin was evaluated, at a sub-optimum dose, i.e. about 60 mg/kg/injection, according to the following scheme: once a week, for 4 weeks, said administration regimen being designated below as “Q7D4”.
Carboplatin was also evaluated in combination with the 3C23K antibody or with the irrelevant antibody LFB-R565. Carboplatin was administered at about 60 mg/kg/injection according to the Q7D4 regimen and the 3C23K antibody or the irrelevant antibody LFB-R565 at about 10 mg/kg/injection according to the regimen Q3-4D12.
The mice were randomized on D11, when the volume of the tumours was between 50 and 158 mm^3, and the treatments began on D13 (9 mice per group).
The tumours were usually measured twice weekly.
The curves of the individual volume of the tumours were plotted.
In one experiment with 9 mice per group, the curves and analyses were therefore stopped when fewer than 8 values per group had been obtained (8 mice alive).
A Kruskal-Wallis test was also carried out.

[2] = Body weight of the mice, carboplatin combination study; format: in vivo; conditions: for Individual body weight of the mice: one value per mouse
From the text: Moreover, to identify whether the treatment has a toxic effect, the weight of the mice was monitored individually once a week.

[3] = test system: Cov434-AMHRII Asc1a5 tumour cells;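 further: control mice received NaCl solution, survival endpoint was euthanasia once tumour volume hit 2000 mm^3 or on ethical grounds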
From the text: A solution of NaCl was used as the control.
(§1) The animals were sacrificed when the tumour volumes reached 2000 mm^3 or for ethical reasons. The curves of mean values and median values as well as the statistical analyses were stopped when 20% of the mice in the group were dead.

[4] = test system: Cov434-AMHRII Asc1a5 tumour cells (a cell line of human ovarian cancer); assay: Anti-tumour activity of 3C23K alone or with paclitaxel in Cov434-AMHRII Asc1a5 xenograft (tumour volume, T/C ratio, statistical analysis); conditions: for Kruskal-Wallis Test: contrast vs control; for Individual tumour volume: individual mice;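 on all read-outs here: subcutaneous Cov434-AMHRII Asc1a5 xenografts in female Swiss nude mice, tumour volume from length×width×height/2 in mm^3, randomized D13, dosing from D14, 8 mice per group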
Protocol: Female Swiss nude mice (Harlan Laboratories) were injected subcutaneously (s.c.) with 7.10^6 cells of Cov434-AMHRII Asc1a5 (cell line of human ovarian cancer transfected with cDNA AMHRII) in Matrigel (1:1 ratio) under a volume of 150 μL on day 0 (D0).
The mice were randomized on D13, when the volume of the tumours was between 58 and 150 mm^3, and the treatments began on D14 (8 mice per group).
The tumours were usually measured twice weekly. Tumour volume (TV) was calculated using the following formula, in which the length corresponds to the largest of the tumour diameters, the width corresponds to the smallest of the tumour diameters and the tumour height: TV (mm^3)=(length×width×height)/2.
In addition, for each group, curves of tumour growth were plotted using the calculated mean tumour volumes or the median tumour volumes.
as §1
In one experiment with 8 mice per group, the curves and analyses were stopped when fewer than 7 values per group had been obtained (7 mice alive).
The statistical differences between the different groups were analysed by ANOVA comparison using the Statgraphics centurion XV software.
The ANOVA table breaks down the variance into two components: an inter-group component and an intra-group component. The ratio F is the ratio of the inter-group estimate to the intra-group estimate. When the P value of test F is greater than or equal to 0.05, there is no statistically significant difference between the mean values of the two groups, with a confidence level of 95%. P values less than 0.05 indicate a significant difference between the mean values of the two groups with a confidence level of 95%.
A Kruskal-Wallis test was also carried out. When the P value is greater than or equal to 0.05, there is no statistically significant difference between the median of the two groups, with a confidence level of 95%. P values less than 0.05 indicate a significant difference between the medians of the two groups with a confidence level of 95%.
The treatment is initiated on day 14 after injection.

[5] = D11, randomization, before treatment
[6] = Day 13, randomization, before treatment

N.N.O=C([O-])C1(C(=O)[O-])CCC1.[Pt+2] [carboplatin, reference compound]
Individual tumour volume [1, 5]: 53 mm^3 and 142 mm^3 and 61 mm^3 and 102 mm^3 and 90 mm^3 and 72 mm^3 and 81 mm^3 and 70 mm^3 and 114 mm^3
Mean tumour volume [1, 5]: 87 mm^3
Median tumour volume [1, 5]: 81 mm^3
Individual tumour volume ([1]; D14): 104 mm^3 and 210 mm^3 (2×) and 162 mm^3 and 126 mm^3 and 123 mm^3 and 75 mm^3 and 134 mm^3 and 168 mm^3
Mean tumour volume ([1]; D14): 146 mm^3
Median tumour volume ([1]; D14): 134 mm^3
Individual tumour volume ([1]; D18): 98 mm^3 and 173 mm^3 and 112 mm^3 (2×) and 336 mm^3 and 248 mm^3 and 140 mm^3 and 90 mm^3 (2×)
Mean tumour volume ([1]; D18): 155 mm^3
Median tumour volume ([1]; D18): 112 mm^3
Individual tumour volume ([1]; D22): 378 mm^3 and 126 mm^3 and 360 mm^3 and 324 mm^3 and 363 mm^3 and 270 mm^3 and 156 mm^3 and 198 mm^3 and 168 mm^3
Mean tumour volume ([1]; D22): 260 mm^3
Median tumour volume ([1]; D22): 270 mm^3
Individual tumour volume ([1]; D25): 140 mm^3 and 240 mm^3 and 270 mm^3 and 616 mm^3 and 152 mm^3 and 358 mm^3 and 98 mm^3 and 243 mm^3 and 210 mm^3
Mean tumour volume ([1]; D25): 258 mm^3
Median tumour volume ([1]; D25): 240 mm^3
Individual tumour volume ([1]; D29): 270 mm^3 and 200 mm^3 and 360 mm^3 (2×) and 768 mm^3 and 363 mm^3 and 168 mm^3 and 420 mm^3
Mean tumour volume ([1]; D29): 344 mm^3
Median tumour volume ([1]; D29): 360 mm^3
Individual tumour volume ([1]; D32): 351 mm^3 and 243 mm^3 and 578 mm^3 and 864 mm^3 and 653 mm^3 and 504 mm^3 and 220 mm^3 and 462 mm^3
Mean tumour volume ([1]; D32): 461 mm^3
Median tumour volume ([1]; D32): 462 mm^3
Individual tumour volume ([1]; D36): 630 mm^3 and 424 mm^3 and 1148 mm^3 and 1610 mm^3 and 893 mm^3 and 462 mm^3 and 308 mm^3 and 774 mm^3
Mean tumour volume ([1]; D36): 760 mm^3
Median tumour volume ([1]; D36): 630 mm^3
Individual tumour volume ([1]; D39): 660 mm^3 and 484 mm^3 and 1134 mm^3 and 1495 mm^3 and 1488 mm^3 and 447 mm^3 and 347 mm^3 and 910 mm^3 and 423 mm^3
Mean tumour volume ([1]; D39): 821 mm^3
Median tumour volume ([1]; D39): 660 mm^3
Individual tumour volume ([1]; D43): 864 mm^3 and 592 mm^3 and 1881 mm^3 and 2112 mm^3 and 2038 mm^3 and 882 mm^3 and 438 mm^3 and 1105 mm^3 and 672 mm^3
Mean tumour volume ([1]; D43): 1176 mm^3
Median tumour volume ([1]; D43): 882 mm^3
Individual tumour volume ([1]; D46): 1071 mm^3 and 501 mm^3 and 2205 mm^3 and 810 mm^3 and 378 mm^3 and 1450 mm^3 and 878 mm^3
Individual tumour volume ([1]; D49): 1568 mm^3 and 819 mm^3 and 1125 mm^3 and 480 mm^3 and 1650 mm^3 and 980 mm^3
Anti-tumour activity (in words) [1]: anti-tumour effect; also recorded: exerts anti-tumour activity
Anti-tumour activity (in words) ([1]; listed as Carboplatin): significant anti-tumour activity
T/C ratio ([1]; relative to Control group, D11 (before treatment)): 89%
T/C ratio ([1]; relative to Control group, D14): 82%
T/C ratio ([1]; relative to Control group, D18): 52%
T/C ratio ([1]; relative to Control group, D22): 69%
T/C ratio ([1]; relative to Control group, D25): 54%
T/C ratio ([1]; relative to Control group, D29): 56%
T/C ratio ([1]; relative to Control group, D32): 45%
T/C ratio ([1]; relative to Control group, D36): 40%
T/C ratio ([1]; relative to LFB-R565 group, D11 (before treatment)): 100%
T/C ratio ([1]; relative to LFB-R565 group, D14): 87%
T/C ratio ([1]; relative to LFB-R565 group, D18): 65%
T/C ratio ([1]; relative to LFB-R565 group, D22): 100%
T/C ratio ([1]; relative to LFB-R565 group, D25): 59%
T/C ratio ([1]; relative to LFB-R565 group, D29): 52%
T/C ratio ([1]; relative to LFB-R565 group, D32): 67%
T/C ratio ([1]; relative to LFB-R565 group, D36): 35%
Individual body weight of the mice ([2]; D11 (Sep. 19, 2011)): 22.3 (2×) and 25.8 and 23.0 and 27.1 and 23.3 and 24.5 and 22.7 and 20.4
Individual body weight of the mice ([2]; D18 (Sep. 26, 2011), in g (unit assumed)): 22.2 and 24.6 and 22.6 and 26.1 and 24.4 and 25.4 and 23.6 and 20.3 and 22.0
Individual body weight of the mice ([2]; D25 (Oct. 3, 2011)): 27.6 and 28.3 and 25.6 (2×) and 32.7 and 27.0 and 29.4 and 24.2 and 26.0
Individual body weight of the mice ([2]; D32 (Oct. 10, 2011)): 23.7 and 24.5 and 23.6 (2×) and 28.0 and 23.1 (2×) and 21.1 and 20.2
Individual body weight of the mice ([2]; D39 (Oct. 17, 2011), in g (unit assumed)): 24.3 and 23.9 and 25.1 and 27.2 and 25.4 and 22.4 and 20.0 and 21.0 and 23.3
Individual body weight of the mice ([2]; D46 (Oct. 24, 2011)): 25.4 and 25.7 (2×) and 26.4 and 21.7 and 21.0 and 25.0
Mean body weight of the mice ([2]; Day 11 (before treatment)): 23.5 g
Mean body weight of the mice ([2]; Day 18): 23.5 g
Mean body weight of the mice ([2]; Day 25): 27.4 g
Mean body weight of the mice ([2]; Day 32): 23.4 g
Mean body weight of the mice ([2]; Day 39): 23.6 g
Effect on body weight / toxic effect (in words) ([2]; carboplatin study): not regarded as a toxic effect
Decrease in body weight ([2]; on D32 in comparison with D25, after the third injection of carboplatin): about 15%

CC(=O)O[C@H]1C(=O)[C@@]2(C)[C@H]([C@H](OC(=O)c3ccccc3)[C@]3(O)C[C@H](OC(=O)[C@H](O)[C@@H](NC(=O)c4ccccc4)c4ccccc4)C(C)=C1C3(C)C)[C@]1(OC(C)=O)CO[C@@H]1C[C@@H]2O [paclitaxel, reference compound]
Survival parameter: logrank test chi-squared ([3]; contrast vs control): 0.04
Survival parameter Mean ([3]; group of 8 mice): 45 days
Survival parameter Median ([3]; group of 8 mice): 45 days
survival parameter ([3]; individual mice, experiment ended on day 83): 34 Days and 41 Days (2×) and 45 Days (2×) and 51 Days (2×) and 55 Days
Statistical analysis based on the survival parameter (in words) ([3]; mouse, in vivo): does not have an activity that is significantly different from that of the control
Kruskal-Wallis Test ([4]; D13): 0.04
Kruskal-Wallis Test ([4]; D20): 0.47
Statistical analysis of tumour volume (in words) ([4]; D20 to D41): does not have an activity that is significantly different from that of the control
Kruskal-Wallis Test ([4]; D24): 0.28
Kruskal-Wallis Test ([4]; D27): 1.10
Kruskal-Wallis Test ([4]; D31): 0.89
Kruskal-Wallis Test ([4]; D35): 0.10
Kruskal-Wallis Test ([4]; D41): 0.20
Mean tumour volume [4, 6]: 97 mm^3
Median tumour volume [4, 6]: 90 mm^3
Individual tumour volume ([4]; Day 13): 126 mm3 and 117 mm3 and 98 mm3 and 83 mm3 (2×) and 66 mm3 and 144 mm3 and 58 mm3
Mean tumour volume ([4]; Day 20): 226 mm^3
Median tumour volume ([4]; Day 20): 228 mm^3
Individual tumour volume ([4]; Day 20): 424 mm3 and 243 mm3 and 240 mm3 and 280 mm3 and 170 mm3 and 126 mm3 and 217 mm3 and 105 mm3
Mean tumour volume ([4]; Day 24): 313 mm^3
Median tumour volume ([4]; Day 24): 270 mm^3
Individual tumour volume ([4]; Day 24): 756 mm3 and 257 mm3 and 356 mm3 and 284 mm3 and 380 mm3 and 180 mm3 (2×) and 110 mm3
Median tumour volume ([4]; Day 27): 336 mm^3
Individual tumour volume ([4]; Day 27): 896 mm3 and 325 mm3 and 386 mm3 and 255 mm3 and 560 mm3 and 347 mm3 and 270 mm3 and 198 mm3
Mean tumour volume ([4]; Day 31): 589 mm^3
Median tumour volume ([4]; Day 31): 415 mm^3
Individual tumour volume ([4]; Day 31): 1530 mm3 and 420 mm3 and 673 mm3 and 410 mm3 (2×) and 720 mm3 and 358 mm3 and 192 mm3
Mean tumour volume ([4]; Day 35): 1176 mm^3
Median tumour volume ([4]; Day 35): 986 mm^3
Individual tumour volume ([4]; Day 35): 2706 mm3 and 699 mm3 and 1200 mm3 and 1008 mm3 and 1653 mm3 and 965 mm3 and 823 mm3 and 351 mm3
Mean tumour volume ([4]; Day 41): 1390 mm^3
Median tumour volume ([4]; Day 41): 1309 mm^3
Individual tumour volume ([4]; Day 41): 1064 mm3 and 2380 mm3 and 1309 mm3 and 1389 mm3 and 2269 mm3 and 884 mm3 and 437 mm3
Individual tumour volume ([4]; Day 45): 1632 mm3 and 2040 mm3 and 2112 mm3 and 1197 mm3 and 798 mm3
Individual tumour volume ([4]; Day 48): 1536 mm3 and 1323 mm3 and 1232 mm3
Individual tumour volume ([4]; Day 51): 2166 mm3 and 2112 mm3 and 1348 mm3
Individual tumour volume ([4]; Day 55): 2132 mm3
Anti-tumour activity (in words) ([4]; paclitaxel study): modest inhibition of tumour growth
